Assay results reported in publication PMC10611619, “[^99mTc]Tc-PentixaTec: development, extensive pre-clinical evaluation, and first human experience” (European Journal of Nuclear Medicine and Molecular Imaging, 2023).
Where a SMILES comes first, the peptide text is derived from it. Side-chain parts run from the residue outwards. [ ]: non-standard residue; d: D form. The star is where a group is joined. 2Nal = N[C@@H](Cc1ccc2ccccc2c1)C(=O)O; dNMeOrn = CN[C@H](CCCN)C(=O)O; 4Abz = Nc1ccc(C(=O)O)cc1; X1 = NCCNCC(CNCCN)C(=O)*; dDap = NC[C@@H](N)C(=O)O

Test: Patient radiation dosimetry (OLINDA/EXM, RADAR/MIRD)
Format: in vivo, human
Details: for Absorbed organ dose Adrenals / Absorbed organ dose Brain / Absorbed organ dose Breast / Absorbed organ dose Gallbladder wall / Absorbed organ dose Heart wall / Absorbed organ dose Kidneys / Absorbed organ dose LLI wall / Absorbed organ dose Liver / Absorbed organ dose Lungs / Absorbed organ dose Muscle / Absorbed organ dose Osteogenic cells / Absorbed organ dose Ovaries / Absorbed organ dose Pancreas / Absorbed organ dose Red marrow / Absorbed organ dose Skin / Absorbed organ dose Small intestine / Absorbed organ dose Spleen / Absorbed organ dose Stomach wall / Absorbed organ dose Testes / Absorbed organ dose Thymus / Absorbed organ dose Thyroid / Absorbed organ dose Total body / Absorbed organ dose ULI wall / Absorbed organ dose Urinary bladder wall / Absorbed organ dose Uterus: per 1 MBq
Method: Radiation dosimetry calculations were performed using the RADAR (Radiation Dose Assessment Resource) method as implemented in the OLINDA/EXM software and according to the recommendations of the Medical Internal Radiation Dose (MIRD) committee. The individual absorbed organ doses (ODs) and the effective doses (EDs) were corrected to consider the current tissue weighting factors of ICRP 103 [38]. For a detailed description of image analysis for dosimetry, please refer to the supplementary materials section.
The Xeleris^TM Dosimetry Toolkit (GE Healthcare, Milwaukee, USA) was used to perform full organ segmentation by an experienced user. This was performed manually on CT images of organs (kidneys, liver, spleen, heart, lungs, lumbar vertebrae 2-4) to define the regions and volumes of interest (VOIs) for gamma camera scans and SPECT analysis. Quantification of the activity in the VOIs was carried out as converting counts in the VOIs by a calibration factor to the average activity per milliliter and per organ.
The VOIs were transferred from SPECT/CT to the planar images. Additional ROIs for the whole body and a background region adjacent to the head were drawn on the planar images.
The VOIs were used to determine the masses of the individual organs. For the lungs, a density of 0.288 g/mL was used. For all organs not covered by any VOI, the uptake was summed as the contribution from the remainder of the body in the dose calculation.
The time-integrated activity coefficients of all contoured organs were determined using the hybrid planar/SPECT method. Thus, the shape of the time-activity curves were estimated based on the planar images using the NUKFIT software and then scaled to activity values using the SPECT/CT. The accumulated activity in the bone marrow was calculated using the activity in the lumbar vertebrae 2-4 with the assumption that these contain 6.7% of the red bone marrow.
Radiation dosimetry calculations were performed using the RADAR (Radiation Dose Assessment Resource) method as implemented in the OLINDA/EXM software and according to the recommendations of the Medical Internal Radiation Dose (MIRD) committee. The OLINDA/EXM application (version 1.0) was used to calculate the individual absorbed organ doses (ODs) and the effective doses (EDs) by using the time-integrated activity coefficients and the individual patients’ organ masses. A mass of 1500 g for the red bone marrow as assumed for all patients. The EDs were afterwards corrected to consider the current tissue weighting factors of ICRP 103 [16]. The absorbed OD and ED were evaluated for each patient and then averaged across all the patients.

## C[C@@H](NC(=O)[C@@H](CCCNC(=N)N)NC(=O)[C@@H](CN)NC(=O)C(CNCCN)CNCCN)C(=O)Nc1ccc(C(=O)NCCC[C@@H]2C(=O)N[C@@H](CCCNC(=N)N)C(=O)N[C@@H](Cc3ccc4ccccc4c3)C(=O)NCC(=O)N[C@H](Cc3ccc(O)cc3)C(=O)N2C)cc1 [[^99mTc]Tc-N4-L6-CPCR4, [^99mTc]Tc-N4-dap-r-a-Abz-CPCR4, metal not drawn] (cyclo([dY][dNMeOrn]([4Abz-dA-dR-dDap-X1])R[2Nal]G))
Four patients
  absorbed dose bone marrow, median: 9.40E − 03 mGy/MBq
  absorbed dose bone marrow, range: 6.2E − 03–13.50E − 03 mGy/MBq
  absorbed dose kidneys, median: 1.23E − 02 mGy/MBq
  absorbed dose kidneys, range: 0.94 E − 02–1.37E − 02 mGy/MBq
  absorbed dose spleen, median: 1.95E − 02 mGy/MBq
  absorbed dose spleen, range: 1.61E − 02–2.38E − 02 mGy/MBq
  effective dose per unit of administered activity, median: 5.3E − 03 mSv/MBq
  effective dose per unit of administered activity, range: 4.3E − 03–6.7E − 03 mSv/MBq
Median
  Absorbed organ dose Adrenals: 0.0065 mGy
  Absorbed organ dose Brain: 0.0030 mGy
  Absorbed organ dose Breast: 0.0025 mGy
  Absorbed organ dose Gallbladder wall: 0.0060 mGy
  Absorbed organ dose Heart wall: 0.0044 mGy
  Absorbed organ dose Kidneys: 0.0123 mGy
  Absorbed organ dose LLI wall: 0.0048 mGy
  Absorbed organ dose Liver: 0.0077 mGy
  Absorbed organ dose Lungs: 0.0063 mGy
  Absorbed organ dose Muscle: 0.0035 mGy
  Absorbed organ dose Osteogenic cells: 0.0136 mGy
  Absorbed organ dose Ovaries: 0.0050 mGy
  Absorbed organ dose Pancreas: 0.0070 mGy
  Absorbed organ dose Red marrow: 0.0094 mGy
  Absorbed organ dose Skin: 0.0023 mGy
  Absorbed organ dose Small intestine: 0.0049 mGy
  Absorbed organ dose Spleen: 0.0195 mGy
  Absorbed organ dose Stomach wall: 0.0051 mGy
  Absorbed organ dose Testes: 0.0026 mGy
  Absorbed organ dose Thymus: 0.0036 mGy
  Absorbed organ dose Thyroid: 0.0033 mGy
  Absorbed organ dose Total body: 0.0037 mGy
  Absorbed organ dose ULI wall: 0.0049 mGy
  Absorbed organ dose Urinary bladder wall: 0.0041 mGy
  Absorbed organ dose Uterus: 0.0047 mGy
Patient 1
  Absorbed organ dose Adrenals: 0.0053 mGy
  Absorbed organ dose Brain: 0.0023 mGy
  Absorbed organ dose Breast: 0.0021 mGy
  Absorbed organ dose Gallbladder wall: 0.0051 mGy
  Absorbed organ dose Heart wall: 0.0040 mGy
  Absorbed organ dose Kidneys: 0.0137 mGy
  Absorbed organ dose LLI wall: 0.0037 mGy
  Absorbed organ dose Liver: 0.0066 mGy
  Absorbed organ dose Lungs: 0.0051 mGy
  Absorbed organ dose Muscle: 0.0028 mGy
  Absorbed organ dose Osteogenic cells: 0.0099 mGy
  Absorbed organ dose Ovaries: 0.0040 mGy
  Absorbed organ dose Pancreas: 0.0055 mGy
  Absorbed organ dose Red marrow: 0.0065 mGy
  Absorbed organ dose Skin: 0.0018 mGy
  Absorbed organ dose Small intestine: 0.0041 mGy
  Absorbed organ dose Spleen: 0.0161 mGy
  Absorbed organ dose Stomach wall: 0.0040 mGy
  Absorbed organ dose Testes: 0.0023 mGy
  Absorbed organ dose Thymus: 0.0030 mGy
  Absorbed organ dose Thyroid: 0.0028 mGy
  Absorbed organ dose Total body: 0.0028 mGy
  Absorbed organ dose ULI wall: 0.0040 mGy
  Absorbed organ dose Urinary bladder wall: 0.0033 mGy
  Absorbed organ dose Uterus: 0.0038 mGy
Patient 2
  Absorbed organ dose Adrenals: 0.0078 mGy
  Absorbed organ dose Brain: 0.0032 mGy
  Absorbed organ dose Breast: 0.0028 mGy
  Absorbed organ dose Gallbladder wall: 0.0068 mGy
  Absorbed organ dose Heart wall: 0.0049 mGy
  Absorbed organ dose Kidneys: 0.0117 mGy
  Absorbed organ dose LLI wall: 0.0053 mGy
  Absorbed organ dose Liver: 0.0087 mGy
  Absorbed organ dose Lungs: 0.0079 mGy
  Absorbed organ dose Muscle: 0.0038 mGy
  Absorbed organ dose Osteogenic cells: 0.0162 mGy
  Absorbed organ dose Ovaries: 0.0054 mGy
  Absorbed organ dose Pancreas: 0.0083 mGy
  Absorbed organ dose Red marrow: 0.0135 mGy
  Absorbed organ dose Skin: 0.0024 mGy
  Absorbed organ dose Small intestine: 0.0053 mGy
  Absorbed organ dose Spleen: 0.0238 mGy
  Absorbed organ dose Stomach wall: 0.0057 mGy
  Absorbed organ dose Thymus: 0.0040 mGy
  Absorbed organ dose Thyroid: 0.0032 mGy
  Absorbed organ dose Total body: 0.0039 mGy
  Absorbed organ dose ULI wall: 0.0055 mGy
  Absorbed organ dose Urinary bladder wall: 0.0043 mGy
  Absorbed organ dose Uterus: 0.0049 mGy
Patient 3
  Absorbed organ dose Adrenals: 0.0083 mGy
  Absorbed organ dose Brain: 0.0039 mGy
  Absorbed organ dose Breast: 0.0032 mGy
  Absorbed organ dose Gallbladder wall: 0.0073 mGy
  Absorbed organ dose Heart wall: 0.0054 mGy
  Absorbed organ dose Kidneys: 0.0128 mGy
  Absorbed organ dose LLI wall: 0.0062 mGy
  Absorbed organ dose Liver: 0.0089 mGy
  Absorbed organ dose Lungs: 0.0075 mGy
  Absorbed organ dose Muscle: 0.0044 mGy
  Absorbed organ dose Osteogenic cells: 0.0184 mGy
  Absorbed organ dose Ovaries: 0.0064 mGy
  Absorbed organ dose Pancreas: 0.0092 mGy
  Absorbed organ dose Red marrow: 0.0123 mGy
  Absorbed organ dose Skin: 0.0027 mGy
  Absorbed organ dose Small intestine: 0.0062 mGy
  Absorbed organ dose Spleen: 0.0202 mGy
  Absorbed organ dose Stomach wall: 0.0066 mGy
  Absorbed organ dose Thymus: 0.0045 mGy
  Absorbed organ dose Thyroid: 0.0039 mGy
  Absorbed organ dose Total body: 0.0052 mGy
  Absorbed organ dose ULI wall: 0.0063 mGy
  Absorbed organ dose Urinary bladder wall: 0.0053 mGy
  Absorbed organ dose Uterus: 0.0059 mGy
Patient 4
  Absorbed organ dose Adrenals: 0.00524 mGy
  Absorbed organ dose Brain: 0.00278 mGy
  Absorbed organ dose Breast: 0.00227 mGy
  Absorbed organ dose Gallbladder wall: 0.00502 mGy
  Absorbed organ dose Heart wall: 0.00317 mGy
  Absorbed organ dose Kidneys: 0.00936 mGy
  Absorbed organ dose LLI wall: 0.00428 mGy
  Absorbed organ dose Liver: 0.00636 mGy
  Absorbed organ dose Lungs: 0.00337 mGy
  Absorbed organ dose Muscle: 0.00318 mGy
  Absorbed organ dose Osteogenic cells: 0.011 mGy
  Absorbed organ dose Ovaries: 0.00451 mGy
  Absorbed organ dose Pancreas: 0.00571 mGy
  Absorbed organ dose Red marrow: 0.00617 mGy
  Absorbed organ dose Skin: 0.00209 mGy
  Absorbed organ dose Small intestine: 0.00455 mGy
  Absorbed organ dose Spleen: 0.0188 mGy
  Absorbed organ dose Stomach wall: 0.00441 mGy
  Absorbed organ dose Testes: 0.00282 mGy
  Absorbed organ dose Thymus: 0.00324 mGy
  Absorbed organ dose Thyroid: 0.00329 mGy
  Absorbed organ dose Total body: 0.00351 mGy
  Absorbed organ dose ULI wall: 0.00441 mGy
  Absorbed organ dose Urinary bladder wall: 0.00385 mGy
  Absorbed organ dose Uterus: 0.0044 mGy
Range Max
  Absorbed organ dose Adrenals: 0.0083 mGy
  Absorbed organ dose Brain: 0.0039 mGy
  Absorbed organ dose Breast: 0.0032 mGy
  Absorbed organ dose Gallbladder wall: 0.0073 mGy
  Absorbed organ dose Heart wall: 0.0054 mGy
  Absorbed organ dose Kidneys: 0.0137 mGy
  Absorbed organ dose LLI wall: 0.0062 mGy
  Absorbed organ dose Liver: 0.0089 mGy
  Absorbed organ dose Lungs: 0.0079 mGy
  Absorbed organ dose Muscle: 0.0044 mGy
  Absorbed organ dose Osteogenic cells: 0.0184 mGy
  Absorbed organ dose Ovaries: 0.0064 mGy
  Absorbed organ dose Pancreas: 0.0092 mGy
  Absorbed organ dose Red marrow: 0.0135 mGy
  Absorbed organ dose Skin: 0.0027 mGy
  Absorbed organ dose Small intestine: 0.0062 mGy
  Absorbed organ dose Spleen: 0.0238 mGy
  Absorbed organ dose Stomach wall: 0.0066 mGy
  Absorbed organ dose Testes: 0.0028 mGy
  Absorbed organ dose Thymus: 0.0045 mGy
  Absorbed organ dose Thyroid: 0.0039 mGy
  Absorbed organ dose Total body: 0.0052 mGy
  Absorbed organ dose ULI wall: 0.0063 mGy
  Absorbed organ dose Urinary bladder wall: 0.0053 mGy
  Absorbed organ dose Uterus: 0.0059 mGy
Range Min
  Absorbed organ dose Adrenals: 0.0052 mGy
  Absorbed organ dose Brain: 0.0023 mGy
  Absorbed organ dose Breast: 0.0021 mGy
  Absorbed organ dose Gallbladder wall: 0.0050 mGy
  Absorbed organ dose Heart wall: 0.0032 mGy
  Absorbed organ dose Kidneys: 0.0094 mGy
  Absorbed organ dose LLI wall: 0.0037 mGy
  Absorbed organ dose Liver: 0.0064 mGy
  Absorbed organ dose Lungs: 0.0034 mGy
  Absorbed organ dose Muscle: 0.0028 mGy
  Absorbed organ dose Osteogenic cells: 0.0099 mGy
  Absorbed organ dose Ovaries: 0.0040 mGy
  Absorbed organ dose Pancreas: 0.0055 mGy
  Absorbed organ dose Red marrow: 0.0062 mGy
  Absorbed organ dose Skin: 0.0018 mGy
  Absorbed organ dose Small intestine: 0.0041 mGy
  Absorbed organ dose Spleen: 0.0161 mGy
  Absorbed organ dose Stomach wall: 0.0040 mGy
  Absorbed organ dose Testes: 0.0023 mGy
  Absorbed organ dose Thymus: 0.0030 mGy
  Absorbed organ dose Thyroid: 0.0028 mGy
  Absorbed organ dose Total body: 0.0028 mGy
  Absorbed organ dose ULI wall: 0.0040 mGy
  Absorbed organ dose Urinary bladder wall: 0.0033 mGy
  Absorbed organ dose Uterus: 0.0038 mGy
Per 500 MBq
  effective dose, range: 2.1–3.4 mSv
Standard activity of 500 MBq
  effective dose, median: 2.7 mSv
